Laboratory results published in US20210252047A1, “USE OF HALOGEN COMPOUNDS FOR THE TREATMENT AND PREVENTION OF TISSUE INJURY AND POST-INTENSIVE CARE SYNDROME” (Faraday Pharmaceuticals, Inc., priority 2018, published 2021).

Legend:
[1] = test system: mice subject to bilateral hind limb ischemia (HLI); experiment: Hind limb ischemia (HLI) cytokine levels in muscle and plasma, Example 3; assay type: in vivo, C56Bl/6 mice; conditions: 24 hours after reperfusion
Method: A mouse model of hind limb ischemia was utilized to induce intramuscular and systemic inflammation. Male C56Bl/6 mice˜7-10 weeks old were subject to bilateral hind limb ischemia (HLI) by placing an O-ring on both hind limbs for 2.5 hours. Five minutes prior to reperfusion an intravenous bolus of sodium iodide (NaI; FDY-5301) at a concentration of 1 mg/kg was delivered. Vehicle treated animals received an i.v. bolus of saline. After i.v. delivery, at the 2.5 hour mark, the O-rings were cut off and removed to allow for tissue reperfusion. The mice were sacrificed 24 hours following reperfusion. Upon sacrifice, whole blood was removed (plasma was then separated and frozen at −80° C.), the gastronemius muscle was removed and snap frozen in liquid nitrogen and then stored at −80° C. The cytokines were evaluated on a MAGPIX® instrument (Luminex Corp) using a custom multiplex assay kit from MilliporeSigma (MCYTOMAG-70K-09, containing: INF-γ, IL-18, IL-2, IL-6, IL-10, KC, LIX, MIP-2 & TNF-α.

[2] = test system: mice subjected to bilateral hind limb ischemia; experiment: Hind limb ischemia survival, Study C (3 hours ischemia, i.v. bolus); assay type: in vivo, C57Bl/6 mice
Method: (§1) A bilateral hind-limb ischemia model was used to induce systemic inflammation. Male C57Bl/6 mice (7-10 weeks old) were subjected to 2 hours of bilateral hind limb ischemia followed by 3 hours of reperfusion. Ischemia was induced by application of latex o-rings above the greater trochanter using a McGivney Hemorrhoidal ligator. After 3 hours of reperfusion, the plasma was analyzed for levels of creatine kinase (CK), or other markers of organ injury: blood urea nitrogen (BUN), alanine aminotransferase (ALT), and aspartate aminotransferase (AST).
The model used to evaluate survival was similar to that previously described for Study A; however, the time of ischemia was increased to 3 hours. The time from reperfusion to death was monitored for the next 2 months.
A 1 mg/kg bolus of sodium iodide was administered intravenously (i.v.) by the retro orbital (r.o.) route 5 minutes prior to reperfusion of the hind limbs.

[3] = test system: mice subjected to hindlimb ischemia reperfusion injury; experiment: Hindlimb ischemia reperfusion injury (2 hours ischemia, 3 hours reperfusion), Example 1; assay type: in vivo, C57BL/6 mice
Method: Anesthetized adult male C57BL/6 mice were subjected to hindlimb ischemia reperfusion injury (bilateral leg tourniquets for 2 hours (ischemia) followed by 3 hours of reperfusion after tourniquet removal). To determine whether exogenous iodide could reduce damage to heart and lung tissue caused by the ischemia reperfusion injury, various doses of iodide (0 mg/kg, 1 mg/kg, 10 mg/kg or 20 mg/kg) were administered intravenously (i.v.) by the retro orbital (r.o.) to the animals 5 minutes prior to reperfusion of the hind limb.
The animals were then sacrificed and blood (plasma) and lung and GC muscle samples obtained. The blood (plasma) samples were assayed to determine the concentrations of creatine kinase and cardiac troponin present in each. In addition, the amount of edema present in the lung and GC muscle was determined as wet weight/dry weight.

[4] = test system: mice subjected to bilateral hind limb ischemia; experiment: Hind limb ischemia survival, Study B (2.5 hours ischemia, NaI in drinking water); assay type: in vivo, C57Bl/6 mice
Method: as §1
The model used to evaluate survival was similar to that previously described for Study A; however, the time of ischemia was increased to 2.5 hours. The time from reperfusion to death was monitored for the next 24 hours.
The drinking water of the mice was supplemented with 84 μM NaI and the mice were allowed ad libitium access (p.o.) to this water for >5 days prior to hind limb ischemia.

[5] = test system: mice subjected to bilateral hind limb ischemia; experiment: Bilateral hind-limb ischemia model of systemic inflammation, Study A (2 hours ischemia, 3 hours reperfusion); assay type: in vivo, C57Bl/6 mice; conditions: after 3 hours of reperfusion
Method: as §1
A 1, 3, 10, or 20 mg/kg bolus of sodium iodide was administered intravenously (i.v.) by the retro orbital (r.o.) route 5 minutes prior to reperfusion of the hind limbs.

[6] = 1 mg/kg i.v. bolus 5 minutes prior to reperfusion, 2.5 h ischemia, p<0.05, FIG. 7
[7] = i.v. administration 5 minutes prior to reperfusion, FIG. 2

Structure (SMILES): [I-].[Na+] [sodium iodide]
- plasma IL-6 ([1]; 1 mg/kg i.v. bolus 5 minutes prior to reperfusion, 2.5 h ischemia, FIG. 8): significant reduction
- IL-6 in muscle tissue [1, 6]: significant reduction
- IL-10 in muscle tissue [1, 6]: significant reduction
- KC in muscle tissue [1, 6]: significant reduction
- MIP-2 in muscle tissue [1, 6]: significant reduction
- inflammation, heat map of all cytokines assessed in muscle or plasma ([1]; 1 mg/kg i.v. bolus, FIGS. 9 and 10): overall reduction
- cytokine levels in plasma ([1]; FIG. 8): significantly reduced
- cytokine levels in muscle tissue (IL-6, IL-10, CXCL1 or KC, MIP-2) ([1]; FIGS. 7A-7D): significantly reduced
- survival compared to vehicle administration ([2]; 1 mg/kg i.v. bolus 5 minutes prior to reperfusion): increased
- animals alive after 72 hours ([2]; 1 mg/kg i.v. bolus 5 minutes prior to reperfusion, vehicle 0%, FIG. 6A): 20%
- further survival of the animals alive after 72 hours (study ended at this point) ([2]; 1 mg/kg i.v. bolus, FIG. 6B): ≥ 2 months
- plasma CK (creatine kinase) levels compared to vehicle ([3]; 1 mg/kg, 10 mg/kg or 20 mg/kg i.v. (retro orbital) 5 minutes prior to reperfusion, 2 h ischemia, 3 h reperfusion, FIG. 1A): significantly reduced
- level of cardiac troponin ([3]; 10 mg/kg i.v. 5 minutes prior to reperfusion, plasma, 2 h ischemia, 3 h reperfusion, FIG. 1B): significantly reduced
- muscle edema (gastrocnemius), wet weight/dry weight [3, 7]: reduced
- pulmonary edema (lung), wet weight/dry weight [3, 7]: reduced
- animals alive at 24 hours ([4]; 84 μM in drinking water (p.o.) >5 days prior to ischemia, vehicle 50%): 90%
- survival compared to vehicle ([4]; 84 μM in drinking water ad libitum (p.o.) >5 days prior to ischemia, monitored 24 hours, FIG. 5): significantly increased
- plasma CK levels compared to vehicle ([5]; 1 mg/kg i.v. bolus 5 minutes prior to reperfusion, FIG. 3): significantly reduced
- plasma level of blood urea nitrogen (BUN) ([5]; 1, 3, 10 or 20 mg/kg i.v. bolus 5 minutes prior to reperfusion, FIG. 4A): reduced
- plasma level of alanine aminotransferase (ALT) ([5]; 1, 3, 10 or 20 mg/kg i.v. bolus 5 minutes prior to reperfusion, FIG. 4B): reduced
- plasma level of aspartate aminotransferase (AST) ([5]; 1, 3, 10 or 20 mg/kg i.v. bolus 5 minutes prior to reperfusion, FIG. 4C): reduced
